Measurements from paper PMC6522510 (Nature Communications, 2019).
pEC50, pIC50: −log10 of the molar value. Where two headings read alike, the source gives them in different places. One block for each compound: values may come before it.

Legend:
M07e [1] = assay: cells; set-up: species or system AML cell lines (8); Secondary HTS, 10-point dose-response in triplicate, Cell Titer Glo viability, four-parameter fit EC50; settings: M-07e, 72 h, read-out: M07e
CMS [2] = assay: Secondary dose-response HTS, Cell Titer Glo; assay type: cell-based, human; settings: Homo sapiens
[3] = tested on: AMKL primary AML blast samples; assay: Ex vivo drug treatment of primary AML blasts on mesenchymal stromal cells; assay type: cell-based; settings: Homo sapiens; primary blasts on MSC, 96 h
CHRF288-11 [4] = assay: cells; set-up: species or system AML cell lines (8); Secondary HTS, 10-point dose-response in triplicate, Cell Titer Glo viability, four-parameter fit EC50; settings: 72 h, read-out: CHRF288-11
MV4-11 [5] = assay: cells; set-up: species or system AML cell lines (8); Secondary HTS, 10-point dose-response in triplicate, Cell Titer Glo viability, four-parameter fit EC50; settings: Homo sapiens, MV4-11, 72 h, read-out: MV4-11
CMK [6] = assay: cells; set-up: species or system AML cell lines (8); Secondary HTS, 10-point dose-response in triplicate, Cell Titer Glo viability, four-parameter fit EC50; settings: Homo sapiens, CMK, 72 h, read-out: CMK
[7] = tested on: panel of 8 AML cell lines; assay: Secondary dose-response HTS, whole panel; assay type: cell-based, human; settings: secondary HTS (Supplementary Data 2)
ML-2 [8] = assay: cells; set-up: species or system AML cell lines (8); Secondary HTS, 10-point dose-response in triplicate, Cell Titer Glo viability, four-parameter fit EC50; settings: Homo sapiens, ML-2, 72 h, read-out: ML-2
MOLM-13 [9] = assay: Secondary dose-response HTS, Cell Titer Glo; assay type: cell-based, human; settings: MOLM-13; for pEC50: Homo sapiens
U937 [10] = assay: cells; set-up: species or system AML cell lines (8); Secondary HTS, 10-point dose-response in triplicate, Cell Titer Glo viability, four-parameter fit EC50; settings: Homo sapiens, U-937, 72 h, read-out: U937
[11] = tested on: FLT3-ITD+ primary AML blast samples
[12] = tested on: MLLr primary AML blast samples; assay: Ex vivo drug treatment of primary AML blasts on mesenchymal stromal cells; assay type: cell-based; settings: Homo sapiens; primary blasts on MSC, 96 h, range over patient samples
AML cell lines = assay: Intracellular drug and phosphorylated metabolites by HPLC with liquid scintillation counting; settings: 2 h, 1 µM, all cell lines evaluated
CHRF288-11 [13] = assay: Secondary dose-response HTS, Cell Titer Glo; assay type: cell-based, human; settings: for pEC50: Homo sapiens
[14] = tested on: Mll-PTD/wt:Flt3ITD/ITD primary transplants; assay: In vivo efficacy, survival; set-up: species or system mice; settings: mouse, in vivo, ip
U937 [15] = assay type: cell-based; settings: Homo sapiens, U-937; 72 h, Cell Titer Glo
U937 [16] = assay: Secondary dose-response HTS, Cell Titer Glo; assay type: cell-based, human; settings: Homo sapiens, U-937
CHRF288-11 [17] = assay type: cell-based; settings: Homo sapiens; 72 h, Cell Titer Glo; read-out: IC50 CHRF288-11
ML2 = assay: Secondary dose-response HTS, Cell Titer Glo; assay type: cell-based, human; settings: Homo sapiens, ML-2
CMS [18] = assay type: cell-based; settings: Homo sapiens, 72 h, read-out: IC50 CMS
MOLM-13 [19] = assay type: cell-based; settings: Homo sapiens, 72 h, Cell Titer Glo
MV4-11 [20] = assay type: cell-based; settings: Homo sapiens, 72 h, Cell Titer Glo
[21] = In vivo tolerability / maximum tolerated dose; set-up: species or system mice; settings: multiple doses, intermittent every 3 or 4-day schedule
Description: Next, we sought to compare the in vivo efficacy of gemcitabine and cabazitaxel to the standard of care, cytarabine. Due to limitations with tolerability, we have previously treated our AML xenograft models with low-dose cytarabine[13],[31]. […] Tolerability studies of gemcitabine at the same dose and schedule was not tolerated. […] Similarly, we performed tolerability of cabazitaxel using multiple doses on an intermittent every 3 or 4-day schedule; the only tolerable dose was 5 mg/kg.
All animal studies were performed in accordance with Animal Care and Use Programs under protocols approved by the Institutional Animal Care and Use Committee at OSU. We have complied with the relevant ethical considerations for animal research overseen by this committee. Mice were housed in a barrier facility. Non-tumor bearing Ly5.2 C57Bl/6 (BoyJ) mice were treated with 100, 120, or 140 mg kg^−1 gemcitabine on an intermittent schedule every 3 days for 3 weeks; 3 or 6 mg kg^−1 doses were used to evaluate daily for 5 days schedule. All doses were administered by intraperitoneal injection; tolerability was assessed by daily weights and observation of changes in body condition.
Supplementary Figure 12. Establish maximum tolerated dose of gemcitabine. Non-tumor bearing female BoyJ mice were treated on an intermittent schedule every 3 days for 3 weeks with 100, 120, or 140 m gkg-1 gemcitabine (Gem ) or treated on a daily schedule once a day for 5 days with 3 or 6 m gkg-1 Gem. Daily weight of treated mice; data reported as a percent weight loss from day 0. Arrow indicate treatment days.

M07e [22] = assay: Secondary dose-response HTS, Cell Titer Glo; assay type: cell-based, human; settings: Homo sapiens, M-07e
MV4-11 [23] = assay: Secondary dose-response HTS, Cell Titer Glo; assay type: cell-based, human; settings: MV4-11; for pEC50: Homo sapiens
CMK [24] = assay: Secondary dose-response HTS, Cell Titer Glo; assay type: cell-based, human; settings: Homo sapiens, CMK
[25] = tested on: AMKL patient-derived xenograft; assay: In vivo efficacy, survival; set-up: species or system NSG-SGM3 mice; settings: AMKL PDX, 5 mg kg−1 q4d, i.p.
[26] = tested on: ML-2-luciferase/YFP+ xenograft; assay: In vivo efficacy, survival; set-up: species or system NSG mice; settings: ML-2 xenograft, 5 mg kg−1 q4d, i.p.
THP-1 = assay type: cell-based; settings: Homo sapiens, 72 h, Cell Titer Glo
ML-2 [27] = assay type: cell-based; settings: Homo sapiens, 72 h, Cell Titer Glo
[28] = tested on: CHRF288-11-luciferase/YFP+ xenograft; assay: In vivo efficacy, survival; set-up: species or system NSG mice; settings: CHRF288-11 xenograft, 5 mg kg−1 q4d, i.p.
[29] = HTS, secondary high-throughput screen, CMS, read-out: average effective concentration, CMS
[30] = secondary high-throughput screen, read-out: average effective concentration, MOLM-13
[31] = secondary HTS, 72 h, average of triplicate, read-out: EC50 CHRF288-11
[32] = secondary HTS, 72 h, average of triplicate, read-out: EC50 U937
[33] = secondary high-throughput screen, read-out: average effective concentration, ML-2
[34] = secondary HTS, 72 h, average of triplicate, read-out: EC50 M07e
[35] = secondary HTS, 72 h, average of triplicate, read-out: EC50 MV4-11
[36] = secondary high-throughput screen, read-out: average effective concentration, MV4-11
[37] = secondary HTS, 72 h, average of triplicate, read-out: EC50 MOLM-13
[38] = secondary high-throughput screen, U937, read-out: average effective concentration, U937
[39] = secondary high-throughput screen, M07e, read-out: average effective concentration, M07e
[40] = secondary high-throughput screen

pIC50 [3]: 6.36
pEC50 (MV4-11 [5]): < 5.00
pEC50 (MOLM-13 [9]; [30]): 5.08
pEC50 (U937 [10]): < 5.00
pIC50 [11]: 5.50 to 8.06
pIC50 [12]: 5.37 to 6.98
SMILES: COc1cc(Nc2ncc3c(n2)-c2ccc(Cl)cc2C(c2c(F)cccc2OC)=NC3)ccc1C(=O)O [Alisertib]
pEC50 (M07e [1]): < 5.00
pEC50 (CMS [2]; [29]): 5.40
pEC50 (CHRF288-11 [4]): < 5.00
pEC50 (CMK [6]): 8.68
active cell lines out of 8 in HTS [7]: 4/8
pEC50 (ML-2 [8]): < 5.00

pIC50 (U937 [15]): 8.68
pEC50 (U937 [16]; [38]): 9.00
pIC50 (CMS [18]): 7.70
pIC50 (MOLM-13 [19]): 8.66
pIC50 (MV4-11 [20]): 8.52
pEC50 (MV4-11 [23]; [36]): 9.00
pEC50 (MOLM-13 [9]; [30]): 9.00
pIC50 (THP-1): 8.49
SMILES: CC(=O)O[C@@]12CO[C@@H]1C[C@H](O)[C@@]1(C)C(=O)[C@H](O)C3=C(C)[C@@H](OC(=O)[C@H](O)[C@@H](NC(=O)OC(C)(C)C)c4ccccc4)C[C@@](O)([C@@H](OC(=O)c4ccccc4)[C@H]21)C3(C)C [Docetaxel, docetaxel, reference compound]
pEC50 (CHRF288-11 [13]; HTS, secondary high-throughput screen, CHRF288-11, read-out: average effective concentration, CHRF288-11): 6.30
pIC50 (CHRF288-11 [17]): 7.97
pEC50 (CMS [2]; HTS, read-out: average effective concentration, CMS): 8.36
pEC50 (M07e [22]; [39]): 9.00
pEC50 (CMK [24]; read-out: average effective concentration, CMK): 9.00
pIC50 (ML-2 [27]): 8.82

pIC50 (U937 [15]): 8.60
pIC50 (MOLM-13 [19]): 8.52
pIC50 (MV4-11 [20]): 8.68
pIC50 (THP-1): 8.27
SMILES: CC(=O)O[C@H]1C(=O)[C@@]2(C)[C@H]([C@H](OC(=O)c3ccccc3)[C@]3(O)C[C@H](OC(=O)[C@H](O)[C@@H](NC(=O)c4ccccc4)c4ccccc4)C(C)=C1C3(C)C)[C@]1(OC(C)=O)CO[C@@H]1C[C@@H]2O [Paclitaxel, paclitaxel]
pIC50 (CHRF288-11 [17]): 7.60
pIC50 (CMS [18]; Cell Titer Glo): 7.59
pIC50 (ML-2 [27]): 8.46

The remaining lines, values behind:

SMILES: Nc1ccn([C@@H]2O[C@H](COP(=O)(O)OP(=O)(O)OP(=O)(O)O)[C@@H](O)[C@@H]2O)c(=O)n1 [Ara-CTP, cytarabine triphosphate]
share of the total intracellular accumulation (AML cell lines): 52–65%

SMILES: CO[C@H]1C(=O)[C@]2(C)[C@@H](OC)C[C@H]3OC[C@@]3(OC(C)=O)[C@H]2[C@H](OC(=O)c2ccccc2)[C@]2(O)C[C@H](OC(=O)[C@H](O)[C@@H](NC(=O)OC(C)(C)C)c3ccccc3)C(C)=C1C2(C)C [Cabazitaxel, cabazitaxel]
pEC50 (CHRF288-11 [13]; [31]): 9.00
Median survival [14]: 60 days
pIC50 (U937 [15]): 9.10
pEC50 (U937 [16]; [32]): 9.00
pIC50 (CHRF288-11 [17]): 8.54
pEC50 (CMS [2]; HTS, 72 h, read-out: EC50 CMS): 9.00
pEC50 (ML2; secondary HTS, 72 h, average of triplicate, read-out: EC50 ML2): 9.00
pEC50 (ML2; [33]): 9.30
pIC50 (CMS [18]): 8.20
pIC50 [3]: < 4.30
pIC50 (MOLM-13 [19]): 8.92
pIC50 (MV4-11 [20]): 8.82
only tolerable dose [21]: 5 mg/kg
pEC50 (M07e [22]; [34]): 9.00
pEC50 (MV4-11 [23]; [35]): 9.52
pEC50 (MV4-11 [23]; [36]): 9.47
pEC50 (CMK [24]; 72 h, read-out: EC50 CMK): 9.00
Median survival [25]: 62 days
pEC50 (MOLM-13 [9]; [37]): 9.00
Median survival [26]: 82 days
pIC50 (THP-1): 8.36
pIC50 (ML-2 [27]): 8.80
Median survival [28]: 44 days
Median survival ([28]; x 2 cycles): 40 days

SMILES: Nc1nc(Cl)nc2c1ncn2[C@@H]1O[C@H](CO)[C@@H](O)[C@@H]1F [Clofarabine, clofarabine, reference compound]
pEC50 (CHRF288-11 [13]; [31]): 6.43
pIC50 (U937 [15]): 7.25
pEC50 (U937 [16]; [32]): 7.05
pEC50 (U937 [16]; [38]): 7.06
pIC50 (CHRF288-11 [17]): 6.48
pEC50 (CMS [2]; [29]): 7.74
pEC50 (CMS [2]; secondary HTS, 72 h, average of triplicate, read-out: EC50 CMS): 7.70
pIC50 (CMS [18]; Cell Titer Glo): 7.10
pIC50 (MOLM-13 [19]): 7.43
pIC50 (MV4-11 [20]): 7.15
pEC50 (M07e [22]; [34]): 8.00
pEC50 (M07e [22]; [39]): 7.89
pEC50 (MV4-11 [23]; [35]): 6.82
pEC50 (CMK [24]; secondary HTS, 72 h, average of triplicate, read-out: EC50 CMK): 8.30
pEC50 (MOLM-13 [9]; [37]): 7.30
pEC50 (MOLM-13 [9]; [30]): 7.33
pIC50 (THP-1): 7.05
pIC50 (ML-2 [27]): 6.76

SMILES: Nc1nc(F)nc2c1ncn2[C@@H]1O[C@H](CO)[C@@H](O)[C@@H]1O [Fludarabine, fludarabine, reference compound]
average effective concentration, CHRF288-11 (CHRF288-11 [13]; secondary high-throughput screen, CHRF288-11): Inactive
pIC50 (U937 [15]): 7.51
pEC50 (U937 [16]; [38]): < 5.00
pIC50 (CHRF288-11 [17]): < 4.46
pEC50 (CMS [2]; [29]): 6.89
pEC50 (ML2; [33]): < 5.00
pIC50 (CMS [18]; Cell Titer Glo): 7.19
pIC50 (MOLM-13 [19]): 5.76
pIC50 (MV4-11 [20]): < 4.82
pEC50 (M07e [22]; [39]): < 5.00
average effective concentration, MV4-11 (MV4-11 [23]; [40]): Inactive
pEC50 (CMK [24]; secondary high-throughput screen, read-out: average effective concentration, CMK): 5.09
average effective concentration, MOLM-13 (MOLM-13 [9]; [40]): Inactive
pIC50 (THP-1): 5.38
pIC50 (ML-2 [27]): 5.25
